PubChem BioAssay AID256 (DTP/NCI, 2004)
Toxic doses and inconclusive results are not listed.

System: CD2F1 mice, L1210 leukemia ip, survival T/C
Experiment: NCI In Vivo Anticancer Drug Screen. Data for tumor model L1210 Leukemia (intraperitoneal) in CD2F1 (CDF1) mice
Details: higher = longer survival
Procedure: The antitumor activity of compounds was measured in mice bearing transplantable tumors. Survival or tumor size were measured and the results are expressed as the measurement made in the treated group (T) divided by the measurement made in the vehicle treated control group (C). The tumor model used in this assay is L1210 Leukemia (intraperitoneal) in CD2F1 (CDF1) mice

[1] = endpoint: mean survival time, dose: 100.0 mg/kg/injection, schedule: Q04DX003 (ip), vehicle: saline with Tween-80
[2] = endpoint: mean survival time, dose: 200.0 mg/kg/injection, schedule: Q04DX003 (ip), vehicle: saline with Tween-80
[3] = endpoint: mean survival time, dose: 400.0 mg/kg/injection, schedule: Q04DX003 (ip), vehicle: saline with Tween-80
[4] = endpoint: mean survival time, dose: 100.0 mg/kg/injection, schedule: Q01DX009 (ip), vehicle: saline with Tween-80
[5] = endpoint: mean survival time, dose: 200.0 mg/kg/injection, schedule: Q01DX009 (ip), vehicle: saline with Tween-80
[6] = endpoint: mean survival time, dose: 400.0 mg/kg/injection, schedule: Q01DX009 (ip), vehicle: saline with Tween-80
[7] = endpoint: mean survival time, dose: 100.0 mg/kg/injection, schedule: Q01DX001 (ip), vehicle: saline
[8] = endpoint: mean survival time, dose: 200.0 mg/kg/injection, schedule: Q01DX001 (ip), vehicle: saline
[9] = endpoint: mean survival time, dose: 6.25 mg/kg/injection, schedule: Q01DX009 (ip), vehicle: saline with Tween-80
[10] = endpoint: mean survival time, dose: 12.5 mg/kg/injection, schedule: Q01DX009 (ip), vehicle: saline with Tween-80
[11] = endpoint: mean survival time, dose: 100.0 mg/kg/injection, schedule: Q04DX003 (ip), vehicle: saline
[12] = endpoint: mean survival time, dose: 200.0 mg/kg/injection, schedule: Q04DX003 (ip), vehicle: saline
[13] = endpoint: mean survival time, dose: 50.0 mg/kg/injection, schedule: Q04DX003 (ip), vehicle: saline

CCCCCCCCCCCCCCCCS(=O)(=O)CCO
T/C [1]: 90 % of control | T/C [2]: 88 % of control | T/C [3]: 90 % of control

Cc1cc(C)c(CC2(C)SCCCS2)c(C)c1
T/C (endpoint: median survival time, dose: 50.0 mg/kg/injection, schedule: Q04DX002 (ip), vehicle: saline with Tween-80): 100 % of control | T/C (endpoint: median survival time, dose: 100.0 mg/kg/injection, schedule: Q04DX002 (ip), vehicle: saline with Tween-80): 100 % of control | T/C (endpoint: median survival time, dose: 200.0 mg/kg/injection, schedule: Q04DX002 (ip), vehicle: saline with Tween-80): 100 % of control | T/C (endpoint: median survival time, dose: 400.0 mg/kg/injection, schedule: Q04DX002 (ip), vehicle: saline with Tween-80): 110 % of control

N#Cc1[nH]nc2ncnc(NC(=O)C(F)(F)F)c12
T/C (endpoint: mean survival time, dose: 6.25 mg/kg/injection, schedule: Q01DX005 (ip), vehicle: water): 111 % of control | T/C (endpoint: mean survival time, dose: 12.5 mg/kg/injection, schedule: Q01DX005 (ip), vehicle: water): 96 % of control | T/C (endpoint: mean survival time, dose: 25.0 mg/kg/injection, schedule: Q01DX005 (ip), vehicle: water): 107 % of control | T/C (endpoint: mean survival time, dose: 50.0 mg/kg/injection, schedule: Q01DX005 (ip), vehicle: water): 96 % of control

CCOC(=O)NC(O)C(Cl)(Cl)Cl (configuration not stated)
T/C [4]: 97 % of control | T/C [5]: 106 % of control | T/C [6]: 112 % of control

C=NNC(=O)c1ccncc1
T/C [4]: 100 % of control | T/C [5]: 101 % of control | T/C [6]: 95 % of control

O=c1[nH]cc(F)c(=O)n1-c1ccco1
T/C [1]: 111 % of control | T/C [2]: 166 % of control

CC(=Nc1ccccc1)c1ccc2ccccc2c1
T/C [1]: 98 % of control | T/C [2]: 93 % of control | T/C [3]: 97 % of control

C#CC(O)CCC (configuration not stated)
T/C [7]: 97 % of control | T/C [8]: 97 % of control

O=S(=O)(N/N=C/c1ccccc1)c1ccccc1
T/C (endpoint: mean survival time, dose: 12.5 mg/kg/injection, schedule: Q01DX009 (ip), vehicle: Klucel (hydroxypropylcellulose) (HPC)): 97 % of control | T/C (endpoint: mean survival time, dose: 25.0 mg/kg/injection, schedule: Q01DX009 (ip), vehicle: Klucel (hydroxypropylcellulose) (HPC)): 95 % of control | T/C (endpoint: mean survival time, dose: 50.0 mg/kg/injection, schedule: Q01DX009 (ip), vehicle: Klucel (hydroxypropylcellulose) (HPC)): 90 % of control | T/C (endpoint: mean survival time, dose: 100.0 mg/kg/injection, schedule: Q01DX009 (ip), vehicle: Klucel (hydroxypropylcellulose) (HPC)): 94 % of control | T/C (endpoint: mean survival time, dose: 200.0 mg/kg/injection, schedule: Q01DX009 (ip), vehicle: Klucel (hydroxypropylcellulose) (HPC)): 92 % of control | T/C (endpoint: mean survival time, dose: 400.0 mg/kg/injection, schedule: Q01DX009 (ip), vehicle: Klucel (hydroxypropylcellulose) (HPC)): 97 % of control

Cc1cccc(C)c1NC(=O)c1ccccc1Cl
T/C [1]: 98 % of control | T/C [2]: 97 % of control | T/C [3]: 89 % of control

C1CC[N-]CC1.CC(=N\O)/C(C)=N/O.CC(=N\O)/C(C)=N/O.C[CH-]C(C)O.[Co+2]
T/C (endpoint: mean survival time, dose: 6.25 mg/kg/injection, schedule: Q04DX003 (ip), vehicle: saline): 97 % of control

O=C(c1ccccc1)c1cc(Cl)ccc1N1C(=O)C=CC1=O
T/C [9]: 94 % of control | T/C [10]: 95 % of control | T/C (endpoint: mean survival time, dose: 25.0 mg/kg/injection, schedule: Q01DX009 (ip), vehicle: saline with Tween-80): 100 % of control

N#CCC(=O)NN
T/C [11]: 103 % of control | T/C [12]: 108 % of control

O=C(O)C(S)C(S)C(=O)O.[As] (configuration not stated)
T/C (endpoint: mean survival time, dose: 25.0 mg/kg/injection, schedule: Q04DX003 (ip), vehicle: saline): 95 % of control | T/C (endpoint: mean survival time, dose: 50.0 mg/kg/injection, schedule: Q01DX001 (ip), vehicle: saline): 89 % of control | T/C [13]: 92 % of control | T/C [7]: 100 % of control | T/C [11]: 100 % of control

CCOC(=O)C1C(=O)N(Cc2ccccc2)C(=O)N1C (configuration not stated)
T/C (endpoint: mean survival time, dose: 12.5 mg/kg/injection, schedule: Q01DX009 (ip), vehicle: other): 98 % of control | T/C (endpoint: mean survival time, dose: 25.0 mg/kg/injection, schedule: Q01DX009 (ip), vehicle: other): 104 % of control | T/C (endpoint: mean survival time, dose: 50.0 mg/kg/injection, schedule: Q01DX009 (ip), vehicle: other): 100 % of control | T/C (endpoint: mean survival time, dose: 100.0 mg/kg/injection, schedule: Q01DX009 (ip), vehicle: other): 100 % of control | T/C (endpoint: mean survival time, dose: 200.0 mg/kg/injection, schedule: Q01DX009 (ip), vehicle: other): 100 % of control

Cc1cnccc1N=Nc1ccc(N(C)C)cc1
T/C [4]: 117 % of control | T/C [5]: 102 % of control | T/C [6]: 96 % of control

O=C1CC(c2ccccc2)OC(c2ccccc2Cl)C1 (configuration not stated)
T/C [1]: 94 % of control | T/C [2]: 97 % of control | T/C [3]: 94 % of control

COc1ccc(OC)c(/C=C/c2cc3ccccc3c[n+]2C)c1
T/C (endpoint: mean survival time, dose: 3.13 mg/kg/injection, schedule: Q01DX009 (ip), vehicle: saline with Tween-80): 94 % of control | T/C [9]: 102 % of control | T/C [10]: 105 % of control

O=C(O)c1ccc([N+](=O)[O-])cc1
T/C (endpoint: mean survival time, dose: 100.0 mg/kg/injection, schedule: Q04DX002 (ip), vehicle: Klucel (hydroxypropylcellulose) (HPC)): 93 % of control | T/C (endpoint: mean survival time, dose: 200.0 mg/kg/injection, schedule: Q04DX002 (ip), vehicle: Klucel (hydroxypropylcellulose) (HPC)): 101 % of control | T/C (endpoint: mean survival time, dose: 400.0 mg/kg/injection, schedule: Q04DX002 (ip), vehicle: Klucel (hydroxypropylcellulose) (HPC)): 86 % of control

CCOC(=O)C(Cc1cccc2ccccc12)P(=O)(OCC)OCC (configuration not stated)
T/C [7]: 108 % of control | T/C [8]: 108 % of control | T/C (endpoint: mean survival time, dose: 400.0 mg/kg/injection, schedule: Q01DX001 (ip), vehicle: saline): 106 % of control

O=C(O)CSc1ccn(Cc2ccccc2)c1
T/C [4]: 94 % of control | T/C [1]: 106 % of control | T/C [5]: 88 % of control | T/C [2]: 98 % of control | T/C [6]: 88 % of control | T/C [3]: 98 % of control

CN(C)CN1C(=O)S/C(=C2\C(=O)N(CN(C)C)c3ccccc32)C1=O
T/C (endpoint: median survival time, dose: 50.0 mg/kg/injection, schedule: Q01DX005 (ip), vehicle: Klucel (hydroxypropylcellulose) (HPC)): 100 % of control | T/C (endpoint: median survival time, dose: 100.0 mg/kg/injection, schedule: Q01DX005 (ip), vehicle: Klucel (hydroxypropylcellulose) (HPC)): 98 % of control | T/C (endpoint: median survival time, dose: 200.0 mg/kg/injection, schedule: Q01DX005 (ip), vehicle: Klucel (hydroxypropylcellulose) (HPC)): 101 % of control

Cn1c(=O)cc(C=Nc2ccc(O)cc2)c2ccccc21
T/C [4]: 94 % of control | T/C [5]: 90 % of control | T/C [6]: 97 % of control

CC(=O)NC(C)C1(O)CCCCC1 (configuration not stated)
T/C [11]: 100 % of control | T/C [12]: 97 % of control | T/C (endpoint: mean survival time, dose: 400.0 mg/kg/injection, schedule: Q04DX003 (ip), vehicle: saline): 94 % of control

Oc1c(C(c2ccccc2)N2CCCCC2)ccc2ccccc12 (configuration not stated)
T/C [4]: 101 % of control | T/C [5]: 97 % of control

CCOC(=O)C1C=CCCC1 (configuration not stated)
T/C [4]: 97 % of control | T/C [5]: 103 % of control | T/C [6]: 95 % of control

O=P(O)(O)c1ccc(Oc2ccccc2)cc1
T/C [13]: 102 % of control | T/C [11]: 93 % of control | T/C [12]: 103 % of control

CC([NH-])C(=O)O.CC([NH-])C(=O)O.CC([NH-])C(=O)O.[Co+3] (configuration not stated)
T/C (endpoint: mean survival time, dose: 6.25 mg/kg/injection, schedule: Q01DX009 (ip), vehicle: saline): 98 % of control | T/C (endpoint: mean survival time, dose: 12.5 mg/kg/injection, schedule: Q01DX009 (ip), vehicle: saline): 112 % of control | T/C (endpoint: mean survival time, dose: 25.0 mg/kg/injection, schedule: Q01DX009 (ip), vehicle: saline): 107 % of control | T/C (endpoint: mean survival time, dose: 50.0 mg/kg/injection, schedule: Q01DX009 (ip), vehicle: saline): 124 % of control

O=Cc1cc([N+](=O)[O-])ccc1OCC(=O)O
T/C [4]: 92 % of control | T/C [5]: 95 % of control | T/C [6]: 96 % of control

NC(=O)/C(=N/O)c1ccccc1
T/C [1]: 104 % of control | T/C [2]: 106 % of control | T/C [3]: 102 % of control
